Here are results for 35 compounds from patent US12091411B2, “IRAK degraders and uses thereof” (Kymera Therapeutics, Inc., priority 2022, dated 2024).

Where two headings read alike, the source gives them in different places.

For the test, the target named is T1, IRAK4 (Homo sapiens, UniProt Q9NWZ3).
T1 construct: Degradation of IRAK4 in OCI-LY10 was quantitatively measured using Meso Scale Discovery technology; endogenous in cells; host or cells: OCI-LY10
T1 sequence (Q9NWZ3 1-460): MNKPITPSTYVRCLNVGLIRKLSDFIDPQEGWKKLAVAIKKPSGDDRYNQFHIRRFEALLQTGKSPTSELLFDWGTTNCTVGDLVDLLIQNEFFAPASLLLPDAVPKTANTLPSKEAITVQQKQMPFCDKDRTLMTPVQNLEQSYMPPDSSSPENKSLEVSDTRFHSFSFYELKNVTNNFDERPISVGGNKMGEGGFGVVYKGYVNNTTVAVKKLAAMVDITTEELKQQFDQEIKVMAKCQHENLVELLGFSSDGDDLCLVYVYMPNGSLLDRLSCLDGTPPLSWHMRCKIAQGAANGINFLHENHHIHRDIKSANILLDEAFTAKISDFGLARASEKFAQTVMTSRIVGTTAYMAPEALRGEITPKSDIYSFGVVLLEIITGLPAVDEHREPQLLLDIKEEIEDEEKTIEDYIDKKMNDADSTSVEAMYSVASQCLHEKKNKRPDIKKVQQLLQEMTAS
The test is described as follows: IRAK4 MSD Degradation in OCI-LY10. Format: cell-based. The settings on record: OCI-LY10 cells, MSD. The procedure, abridged:
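OCI-LY10 cells exposed to 8-point 1:3 compound series (top 1 to 10 μM) for 4 to 24 h at 37 °C, 5% CO2. Lysate IRAK4 quantified by MSD sandwich immunoassay. DC50 from three-parameter logistic fit, binned A (<0.01 μM) to D (>0.2 μM or not tested).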

Setting [1] is: 4 hrs incubation, read-out: IRAK4 degradation in OCI-LY10 at 4 hrs: DC50.
Where [2] appears, read: 24 hrs incubation, read-out: IRAK4 degradation in OCI-LY10 at 24 hrs: DC50.

Consider `Cn1c(=O)n(C2CCC(=O)NC2=O)c2cccc([C@H]3C[C@@H](CN4CCN(C[C@H]5CC[C@H](n6cc(NC(=O)c7cnn8ccc(N9C[C@H]%10CC9CO%10)nc78)c(C(F)F)n6)CC5)CC4)C3)c21` (stereo partly shown) [I-78], for which the DC50 reads like this: under setting [1], under 10 nM; under setting [2], over 200 nM.

Regarding `Cn1c(=O)n(C2CCC(=O)NC2=O)c2cccc([C@H]3C[C@H](CN4CCN(C[C@H]5CC[C@H](n6cc(NC(=O)c7cnn8ccc(N9C[C@H]%10C[C@@H]9CO%10)nc78)c(C(F)F)n6)CC5)CC4)C3)c21` (stereo partly shown) [I-79], the 50% degradation concentration (DC50) reads like this: under setting [1], under 10 nM; under setting [2], over 200 nM.

As to `C[C@H]1CN(C[C@H]2CC[C@H](n3cc(NC(=O)c4cnn5ccc(N6C[C@@H]7C[C@H]6CO7)nc45)c(C(F)F)n3)CC2)CC[C@@H]1OCC#Cc1cccc2c1n(C)c(=O)n2[C@@H]1CCC(=O)NC1=O` [I-80], the DC50 reads like this: under setting [1], 10 to 100 nM; under setting [2], over 200 nM.

For the compound `Cn1c(=O)n(C2CCC(=O)NC2=O)c2cccc([C@H]3C[C@@H](OC4CCN(C[C@H]5CC[C@H](n6cc(NC(=O)c7cnn8ccc(N9C[C@H]%10C[C@@H]9CO%10)nc78)c(C(F)F)n6)CC5)CC4)C3)c21` (stereo partly shown) [I-81], the DC50 under setting [1] is under 10 nM and the DC50 under setting [2] was over 200 nM.

On to `Cn1c(=O)n(C2CCC(=O)NC2=O)c2cccc([C@H]3C[C@H](OC4CCN(C[C@H]5CC[C@H](n6cc(NC(=O)c7cnn8ccc(N9C[C@H]%10C[C@@H]9CO%10)nc78)c(C(F)F)n6)CC5)CC4)C3)c21` (stereo partly shown) [I-82], for which the DC50 was over 200 nM under setting [1] and over 200 nM under setting [2].

Turning to `COc1cc2nn([C@H]3CC[C@H](CN4CCC5(CC4)CCN(c4cccc6c4n(C)c(=O)n6C4CCC(=O)NC4=O)CC5)CC3)cc2cc1NC(=O)c1cncc(F)c1` (stereo partly shown) [I-83], the DC50 by setting is: under setting [1], over 200 nM; under setting [2], over 200 nM.

Turning to `COc1cc2nn([C@H]3CC[C@H](CN4CCC5(CC4)CCN(c4c(C)ccc6c4n(C)c(=O)n6C4CCC(=O)NC4=O)CC5)CC3)cc2cc1NC(=O)c1cncc(C#N)c1` (stereo partly shown) [I-84], the DC50 runs as follows: under setting [1], over 200 nM; under setting [2], over 200 nM.

For the compound `COc1cc2nn([C@H]3CC[C@H](CN4CCC5(CC4)CCN(c4cccc(N6CCC(=O)NC6=O)c4)CC5)CC3)cc2cc1NC(=O)c1cncc(C#N)c1` [I-85], the 50% degradation concentration (DC50) under setting [1] is over 200 nM and the DC50 under setting [2] was over 200 nM.

Consider `COc1cncc(C(=O)Nc2cc3cn([C@H]4CC[C@H](CN5CCC6(CC5)CCN(c5cccc7c5n(C)c(=O)n7C5CCC(=O)NC5=O)CC6)CC4)nc3cc2OC)c1` (stereo partly shown) [I-86], for which the DC50 by setting is: under setting [1], over 200 nM; under setting [2], over 200 nM.

Take `COc1cc2nn([C@H]3CC[C@H](CN4CCC5(CC4)CCN(c4c(OC)ccc6c4n(C)c(=O)n6C4CCC(=O)NC4=O)CC5)CC3)cc2cc1NC(=O)c1cncc(C#N)c1` (stereo partly shown) [I-87]: the DC50 is under 10 nM under setting [1] and under 10 nM under setting [2].

For `COc1cc2nn([C@H]3CC[C@H](CN4CCC5(CC4)CCN(c4ccc(C6CCC(=O)NC6=O)cc4)CC5)CC3)cc2cc1NC(=O)c1cncc(C#N)c1` (stereo partly shown) [I-88], the DC50 runs as follows: under setting [1], 10 to 100 nM; under setting [2], over 200 nM.

With `COc1cc2nn([C@H]3CC[C@H](CN4CCC5(CC4)CCN(c4cccc6c4n(C)c(=O)n6C4CCC(=O)NC4=O)CC5)CC3)cc2cc1NC(=O)c1cncc(C)c1` (stereo partly shown) [I-89], the DC50 was over 200 nM under setting [1] and over 200 nM under setting [2].

For `COc1cc2nn([C@H]3CC[C@H](CN4CCC5(CC4)CCN(c4cccc6c(N7CCC(=O)NC7=O)cncc46)CC5)CC3)cc2cc1NC(=O)c1cncc(C#N)c1` [I-90], the DC50 runs as follows: under setting [1], over 200 nM; under setting [2], over 200 nM.

For `COc1cc2nn([C@H]3CC[C@H](CN4CCC5(CC4)CCN(c4cccc(C6CCC(=O)NC6=O)c4)CC5)CC3)cc2cc1NC(=O)c1cncc(C#N)c1` (stereo partly shown) [I-91], the DC50 is over 200 nM under setting [1] and 100 to 200 nM under setting [2].

`COc1cc2nn([C@H]3CC[C@H](CN4CCC5(CC4)CCN(c4cccc6c4n(C)c(=O)n6C4CCC(=O)NC4=O)CC5)CC3)cc2cc1NC(=O)c1cncc(C(F)(F)F)c1` (stereo partly shown) [I-92]: the DC50 by setting is: under setting [1], over 200 nM; under setting [2], over 200 nM.

Turning to `COc1cc2nn([C@H]3CC[C@H](CN4CCC5(CC4)CCN(c4cccc6c(N7CCC(=O)NC7=O)cccc46)CC5)CC3)cc2cc1NC(=O)c1cncc(C#N)c1` [I-93], the DC50 under setting [1] was 10 to 100 nM and the 50% degradation concentration (DC50) under setting [2] was 10 to 100 nM.

As for `COc1cc2nc([C@H]3CC[C@H](CN4CCC5(CC4)CCN(c4cccc6c4n(C)c(=O)n6C4CCC(=O)NC4=O)CC5)CC3)sc2cc1NC(=O)c1cncc(C#N)c1` (stereo partly shown) [I-94], the DC50 was over 200 nM under setting [1] and over 200 nM under setting [2].

For the compound `COc1cc2nn([C@H]3CC[C@H](CN4CCC5(CC4)CCN(c4c(F)ccc6c4n(C)c(=O)n6C4CCC(=O)NC4=O)CC5)CC3)cc2cc1NC(=O)c1cncc(C#N)c1` (stereo partly shown) [I-95], the DC50 was over 200 nM under setting [1] and over 200 nM under setting [2].

Regarding `COc1cc2nn([C@H]3CC[C@H](CN4CCC5(CC4)CCN(c4ccc(N6CCC(=O)NC6=O)cc4)CC5)CC3)cc2cc1NC(=O)c1cncc(C#N)c1` [I-96], the DC50 was over 200 nM under setting [1] and over 200 nM under setting [2].

With `Cn1c(=O)n(C2CCC(=O)NC2=O)c2cccc(N3CCC4(CCN(C[C@H]5CC[C@H](c6nc7cc(C(C)(C)O)c(NC(=O)c8cncc(C#N)c8)cc7s6)CC5)CC4)CC3)c21` (stereo partly shown) [I-97], the DC50 under setting [1] is under 10 nM and the DC50 under setting [2] is over 200 nM.

As to `Cn1c(=O)n(C2CCC(=O)NC2=O)c2cccc(C#CCN3CCN(C[C@H]4CC[C@H](n5cc(NC(=O)c6cnn7ccc(N8CCOCC8)nc67)c(C(F)F)n5)CC4)CC3)c21` (stereo partly shown) [I-98], the DC50 runs as follows: under setting [1], under 10 nM; under setting [2], over 200 nM.

As to `COc1ccn2ncc(C(=O)Nc3cn([C@H]4CC[C@H](CN5CCN(CC#Cc6cccc7c6n(C)c(=O)n7C6CCC(=O)NC6=O)CC5)CC4)nc3C(F)F)c2n1` (stereo partly shown) [I-99], the DC50 runs as follows: under setting [1], 10 to 100 nM; under setting [2], over 200 nM.

Take `Cn1c(=O)n(C2CCC(=O)NC2=O)c2cccc(C#CCN3CCN(C[C@H]4CC[C@H](n5cc(NC(=O)c6cnn7ccc(N8CCCCC8)nc67)c(C(F)F)n5)CC4)CC3)c21` (stereo partly shown) [I-100]: the DC50 is 10 to 100 nM under setting [1] and over 200 nM under setting [2].

Take `CN(C)c1ccn2ncc(C(=O)Nc3cn([C@H]4CC[C@H](CN5CCN(CC#Cc6cccc7c6n(C)c(=O)n7C6CCC(=O)NC6=O)CC5)CC4)nc3C(F)F)c2n1` (stereo partly shown) [I-101]: the DC50 reads like this: under setting [1], under 10 nM; under setting [2], over 200 nM.

In the case of `Cc1ccn2ncc(C(=O)Nc3cn([C@H]4CC[C@H](CN5CCN(CC#Cc6cccc7c6n(C)c(=O)n7C6CCC(=O)NC6=O)CC5)CC4)nc3C(F)F)c2n1` (stereo partly shown) [I-102], the DC50 under setting [1] was in the range of 10 to 100 nM and the DC50 under setting [2] was over 200 nM.

As for `Cn1c(=O)n(C2CCC(=O)NC2=O)c2cccc(C#CCN3CCN(C[C@H]4CC[C@H](n5cc(NC(=O)c6cnn7ccc(N8CCCC8)nc67)c(C(F)F)n5)CC4)CC3)c21` (stereo partly shown) [I-103], the DC50 reads like this: under setting [1], under 10 nM; under setting [2], over 200 nM.

Consider `CC(C)c1ccn2ncc(C(=O)Nc3cn([C@H]4CC[C@H](CN5CCN(CC#Cc6cccc7c6n(C)c(=O)n7C6CCC(=O)NC6=O)CC5)CC4)nc3C(F)F)c2n1` (stereo partly shown) [I-104], for which the DC50 by setting is: under setting [1], 10 to 100 nM; under setting [2], over 200 nM.

With `Cn1c(=O)n(C2CCC(=O)NC2=O)c2cccc(C#CCN3CCN(C[C@H]4CC[C@H](n5cc(NC(=O)c6cnn7ccc(C8C[C@H]9C[C@@H]8CO9)nc67)c(C(F)F)n5)CC4)CC3)c21` (stereo partly shown) [I-105], the DC50 reads like this: under setting [1], over 200 nM; under setting [2], over 200 nM.

For `Cn1c(=O)n(C2CCC(=O)NC2=O)c2cccc(C#CCN3CCN(C[C@H]4CC[C@H](n5cc(NC(=O)c6cnn7ccc(N8CCC8)nc67)c(C(F)F)n5)CC4)CC3)c21` (stereo partly shown) [I-106], the DC50 under setting [1] is under 10 nM and the DC50 under setting [2] is over 200 nM.

`Cn1c(=O)n(C2CCC(=O)NC2=O)c2cccc(C#CCN3CCN(CC4CCC(n5cc(NC(=O)c6cnn7ccc(N8CC9CC8CO9)nc67)c(C(F)F)n5)CC4)CC3)c21` (stereo not shown) [I-108]: the DC50 was over 200 nM under setting [1] and over 200 nM under setting [2].

As for `Cn1c(=O)n(C2CCC(=O)NC2=O)c2cccc(C#CCN3CCN(C[C@H]4CC[C@H](n5cc(NC(=O)c6cnn7ccc(C8CCC8)nc67)c(C(F)F)n5)CC4)CC3)c21` (stereo partly shown) [I-109], the DC50 under setting [1] was 10 to 100 nM and the DC50 under setting [2] was over 200 nM.

On to `CCc1ccn2ncc(C(=O)Nc3cn([C@H]4CC[C@H](CN5CCN(CC#Cc6cccc7c6n(C)c(=O)n7C6CCC(=O)NC6=O)CC5)CC4)nc3C(F)F)c2n1` (stereo partly shown) [I-110], for which the 50% degradation concentration (DC50) was 10 to 100 nM under setting [1] and 10 to 100 nM under setting [2].

Take `Cn1c(=O)n(C2CCC(=O)NC2=O)c2cccc(C#CCN3CCN(C[C@H]4CC[C@H](n5cc(NC(=O)c6cnn7ccc(N8CCOC(C)(C)C8)nc67)c(C(F)F)n5)CC4)CC3)c21` (stereo partly shown) [I-111]: the DC50 runs as follows: under setting [1], under 10 nM; under setting [2], over 200 nM.

`Cc1ccc(-c2nn([C@H]3CC[C@H](CN4CCN(CC#Cc5cccc6c5n(C)c(=O)n6C5CCC(=O)NC5=O)CC4)CC3)cc2NC(=O)c2cnn3cccnc23)nc1` (stereo partly shown) [I-113]: the DC50 under setting [1] is over 200 nM and the DC50 under setting [2] was under 10 nM.

For `Cc1ccc(-c2nn([C@H]3CC[C@H](CN4CCN(CC#Cc5cccc6c5n(C)c(=O)n6C5CCC(=O)NC5=O)CC4)CC3)cc2NC(=O)c2cnn3cccnc23)c(F)c1` (stereo partly shown) [I-116], the 50% degradation concentration (DC50) was over 200 nM under setting [1] and 10 to 100 nM under setting [2].

What is called DC50 is the midpoint of the concentration-degradation curve.
